Patent publication US20190315775A1, “MODIFIED […] AND PHARMACEUTICAL COMPOSITION HAVING SAME AS ACTIVE INGREDIENT” (KEIO UNIVERSITY, priority 2016, published 2019)

Assays:
[1] = target: T1, cereblon (CRBN) (Homo sapiens, UniProt Q96SW2); assay: Surface plasmon resonance biosensor (BIACORE 3000) interaction with cereblon; format: binding; conditions: measured at 1 μM, 2 μM and 10 μM, FIG. 9C
T1 construct: recombinant full-length CRBN prepared by the above method was reacted with the beads; T7 tag (N); FLAG tag (C); made in house; host or cells: 293T cells (pcDNA3.3 vector), RIPA extract purified on Ni Sepharose excel

[2] = test system: KMS34 high-risk MM cell line; assay: MTT cell proliferation inhibition, KMS34; format: cell-based; conditions: Homo sapiens, KMS-34, KMS34, t(4;14), del17, 48 hours, read-out: IC50, cell proliferation inhibitory activity, KMS34
Procedure: (§1) For examination of cell proliferation inhibitory activity, high-risk MM cell lines (KMM1, KMS11, KMS21, KMS26, KMS28, KMS34) established by Takemi Otsuki et al., of Kawasaki Medical School were used (Otsuki, T. et al., Int. J. Oncol., 15: 1205-1212, 1999). […] The genetic abnormality of these cell types, and in particular deletion of p53 gene were examined by FISH method (Chang, H. Blood, 105: 358-360, 2005) (WO2010/061862A1). […] These high-risk MM cell lines were treated with drugs such as TC11, HOEtO-TC11, PEG11(E)-TC11, and PEG11(O)-TC11 at arbitrary concentrations. […] Specifically, each high-risk MM cell line was prepared at a concentration of 2×10^5 cells/ml, and then seeded in an amount of 50 μl (1×10^4 cells) per well. After 24 hours, drugs such as TC11, HOEtO-TC11, PEG11(E)-TC11, and PEG11(O)-TC11 having arbitrary concentrations were added. At 48 hours after addition of each drug, 10 μL each of an MTT labeling reagent in Cell Proliferation Kit I [MTT] (Roche Diagnostics, Basel, Switzerland) was added. After 4 hours of treatment at 37° C., 100 μL each of solution buffer was added and then left to stand overnight at 37° C. Absorbance was measured using a microplate reader Infinit™ M1000 (Tecan, Maennedorf, Switzerland) at a wavelength of 570 nm. Cell viability was found from an absorbance ratio using absorbance at 0 μM designated as 100%. IC50 was calculated from a semi-logarithmic chart using Microsoft (registered trademark) Excel.

[3] = test system: KMS11 high-risk MM cell line; assay: MTT cell proliferation inhibition, KMS11; format: cell-based; conditions: Homo sapiens, KMS-11, KMS11, t(4;14), del17, 48 hours, read-out: IC50, cell proliferation inhibitory activity, KMS11
Procedure: as §1

[4] = test system: KMS21 high-risk MM cell line; assay: MTT cell proliferation inhibition, KMS21; format: cell-based; conditions: Homo sapiens, KMS21, t(11;14), 48 hours, read-out: IC50, cell proliferation inhibitory activity, KMS21
Procedure: as §1
Moreover, the concentration dependency of the in vitro cell proliferation inhibitory activity of TC11, and its derivatives, PEG11(E)-TC11 and HOEtO-TC11 against high-risk MM cell line (KMS21) was examined in detail (FIG. 4). […] Such a phenomenon was similarly observed for other high-risk MM cell lines, KMS11, KMS34, and MUM24.

[5] = Water solubility of drugs (saturation concentration by HPLC); format: physicochemical; conditions: 100 mM Tris-HCl (pH 7.5); for Water solubility: 25° C., saturation concentration; for Water solubility, relative ratio (numerals in parentheses): relative to TC11
[6] = test system: KMS28 high-risk MM cell line; assay: MTT cell proliferation inhibition, KMS28; format: cell-based; conditions: Homo sapiens, KMS28, t(4;14), del17, 48 hours, read-out: IC50, cell proliferation inhibitory activity, KMS28
Procedure: as §1

[7] = test system: MUM24 MM cell line; assay: MTT cell proliferation inhibition, MUM24; format: cell-based; conditions: Homo sapiens, MUM24, t(4;14), del13, del17, 48 hours, read-out: IC50, cell proliferation inhibitory activity, MUM24
[8] = test system: KMS26 high-risk MM cell line; assay: MTT cell proliferation inhibition, KMS26; format: cell-based; conditions: Homo sapiens, KMS-26, KMS26, t(4;14), t(4;16), del17, 48 hours, read-out: IC50, cell proliferation inhibitory activity, KMS26
Procedure: as §1

[9] = test system: KMS34 (human myeloma cells); assay: WST-1 proliferation assay (Example 10), KMS34; format: cell-based; conditions: KMS-34, WST-1, 48 hours
Procedure: Cancer cells used herein were KMS34 (human myeloma cells), HeLa (human cervical cancer cells), HCT116 (human colon cancer cells; p53+/+), KATOIII (human stomach cancer cells), MDA-MB-231 (human breast cancer cells), HT-29 (human colon adenocarcinoma cells), PANC-1 (human pancreatic cancer cells), and Li-7 (human liver cancer cells). Proliferation assay of various cancer cells was performed by the WST-1 method (Cook, J A. & Mitchell, J B., Anal. Biochem., 179, 1-7, 1984) as follows. One μ1 each of PEG11(E)-TC11 and PEG11(O)-TC11 prepared in advance at target concentrations was added into each well of a 96-well microplate. Medium was added to the wells at 50 μl per well, and then mixed by tapping lightly the plate. Subsequently, KMS34 was prepared at a concentration of 5×10^5 cells/ml, and cells other than KMS34 were prepared at a concentration of 2×10^5 cells/ml. Cells were seeded at 50 μl per well (2.5×10^4 cells, 1×10^4 cells), and then incubated in a CO2 incubator (37° C., 5% CO2) for 48 hours. Ten μ1 each of cell proliferation reagent WST-1 (Roche) was added to each well after incubation, and then the resultants were mixed by lightly tapping the plate, followed by 1 hour of reaction in the CO2 incubator. Subsequently, the plate was shaken with a plate reader for 1 minute, and then absorbance was measured at 450 nm. At this time, absorbance was also measured at 595 nm as a reference wavelength. The net absorbance was obtained by subtracting the absorbance at the reference wavelength from the absorbance at 450 nm.

T1 sequence (Q96SW2 whole entry): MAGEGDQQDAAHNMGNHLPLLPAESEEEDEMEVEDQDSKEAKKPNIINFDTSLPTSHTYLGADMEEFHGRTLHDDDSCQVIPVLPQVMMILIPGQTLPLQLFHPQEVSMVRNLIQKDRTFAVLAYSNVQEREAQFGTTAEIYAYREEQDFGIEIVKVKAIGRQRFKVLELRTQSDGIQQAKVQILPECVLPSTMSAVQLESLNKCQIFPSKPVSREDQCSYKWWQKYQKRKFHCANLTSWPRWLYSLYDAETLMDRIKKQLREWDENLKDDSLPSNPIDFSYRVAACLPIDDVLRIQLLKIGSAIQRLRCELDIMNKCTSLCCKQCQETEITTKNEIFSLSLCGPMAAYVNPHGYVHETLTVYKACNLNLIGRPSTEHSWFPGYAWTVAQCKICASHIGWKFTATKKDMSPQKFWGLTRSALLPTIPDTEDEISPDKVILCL

Binding to CRBN (SPR sensorgram) [1] | Water solubility [5] | Water solubility, relative ratio (numerals in parentheses) [5] | IC50 [9] | SMILES | IC50 [2] | IC50 [3] | IC50 [4] | IC50 [6] | IC50 [7] | IC50 [8]
never bind to CRBN | 8.89 g/100 ml | 4,447 × | 670 nM | COCCOCCOCCOCCOCCOCCOCCOCCOCCOCCOCCOCCC(=O)OCCOc1cc2c(cc1N)C(=O)N(c1c(C(C)C)cccc1C(C)C)C2=O [PEG11(E)-TC11] | 2600 nM | 1400 nM | 1600 nM | 6800 nM | 1800 nM | 2700 nM
never bind to CRBN | 1.47 g/100 ml | 735 × | 16000 nM | COCCOCCOCCOCCOCCOCCOCCOCCOCCOCCOCCOCCOc1cc2c(cc1N)C(=O)N(c1c(C(C)C)cccc1C(C)C)C2=O [PEG11(O)-TC11] | 10500 nM | 4800 nM | 22700 nM | 25800 nM | 9200 nM | 16400 nM
never bind to CRBN | 0.002 g/100 ml | 1 × | 2600 nM | CC(C)c1cccc(C(C)C)c1N1C(=O)c2ccc(N)cc2C1=O [TC11, 2-(2,6-di-isopropylphenyl)-5-amino-1H-isoindole-1,3-dione, reference compound] | 4000 nM | 2000 nM | 2800 nM | 7100 nM | 3000 nM | 3000 nM
